Assay results as given in ChEMBL document CHEMBL1150258, “Predicting binding modes from free energy calculations” (J Med Chem, 2008).

Target: Human immunodeficiency virus type 1 reverse transcriptase (Human immunodeficiency virus 1, UniProt Q72547)
Test: Inhibition of HIV1 reverse transcriptase in […]
Type: cell-based

Row | IC50 | Structure (SMILES)
1 | 398 nM | CCc1c(C)[nH]c(=O)c(NC(C)=O)c1Cc1cc(C)cc(C)c1
2 | 631 nM | CCc1c(C)[nH]c(=O)c(N2CCCCC2)c1Cc1cc(C)cc(C)c1
3 | 50100 nM | CCCCN(CCCC)c1c(Cc2cc(C)cc(C)c2)c(CC)c(C)[nH]c1=O
4 | 16 nM | CCCN(C)c1c(Cc2cc(C)cc(C)c2)c(CC)c(C)[nH]c1=O
5 | 2 nM | CCc1c(C)[nH]c(=O)c(N(C)CCOC)c1Cc1cc(C)cc(C)c1
6 | 6 nM | CCc1c(C)[nH]c(=O)c(N(C)C(C)COC)c1Cc1cc(C)cc(C)c1 (centres undefined)
7 | 4 nM | CCc1c(C)[nH]c(=O)c(N(C)CCCCCO)c1Cc1cc(C)cc(C)c1
8 | 16 nM | CCc1c(C)[nH]c(=O)c(N(CC)CC)c1Cc1cc(C)cc(C)c1
9 | 16 nM | CCNc1c(Cc2cc(C)cc(C)c2)c(CC)c(C)[nH]c1=O
10 | 8 nM | CCc1c(C)[nH]c(=O)c(N(C)CC)c1Cc1cc(C)cc(C)c1
11 | 3980 nM | CCC(=O)Nc1c(Cc2cc(C)cc(C)c2)c(CC)c(C)[nH]c1=O
12 | 20 nM | CCCNc1c(Cc2cc(C)cc(C)c2)c(CC)c(C)[nH]c1=O
13 | 25 nM | CCc1c(C)[nH]c(=O)c(N(C)CCCSC)c1Cc1cc(C)cc(C)c1
14 | 79 nM | CCc1c(C)[nH]c(=O)c(NC=O)c1Cc1cc(C)cc(C)c1
15 | 158 nM | CCc1c(C)[nH]c(=O)c(N2CCOCC2)c1Cc1cc(C)cc(C)c1
16 | 100000 nM | CCCC(=O)Nc1c(Cc2cc(C)cc(C)c2)c(CC)c(C)[nH]c1=O
17 | 251 nM | CCc1c(C)[nH]c(=O)c(NCc2ccccc2)c1Cc1cc(C)cc(C)c1
18 | 10 nM | CCc1c(C)[nH]c(=O)c(NC)c1Cc1cc(C)cc(C)c1
19 | 12.6 nM | CCc1c(C)[nH]c(=O)c(-n2cccc2)c1Cc1cc(C)cc(C)c1
20 | 126 nM | CCCCNc1c(Cc2cc(C)cc(C)c2)c(CC)c(C)[nH]c1=O

Second part, the compound before the results:

Row | Structure (SMILES) | IC50
21 | CCc1c(C)[nH]c(=O)c(N(C)CC#N)c1Cc1cccc(C)c1 | 4 nM
22 | CCOCCN(C)c1c(Cc2cccc(C)c2)c(CC)c(C)[nH]c1=O | 13 nM
23 | CCc1c(C)[nH]c(=O)c(N(C)CCCCCO)c1Cc1cccc(C)c1 | 10 nM
24 | CCc1c(C)[nH]c(=O)c(N(C)CCO)c1Cc1cccc(C)c1 | 5 nM
25 | CCNC(=S)Nc1c(Cc2cccc(C)c2)c(CC)c(C)[nH]c1=O | 25100 nM
26 | CCc1c(C)[nH]c(=O)c(N(C)CCOC)c1Cc1cccc(/C=C/C#N)c1 | 1 nM
27 | CCc1c(C)[nH]c(=O)c(N(C)CCOC)c1Cc1cccc(C)c1 | 1 nM
28 | CCc1c(C)[nH]c(=O)c(NC(=S)Nc2ccccc2)c1Cc1cccc(C)c1 | 3160 nM
29 | CCc1c(C)[nH]c(=O)c(N(C)CCCO)c1Cc1cccc(C)c1 | 3 nM
30 | CCc1c(C)[nH]c(=O)c(N(C)CC)c1Cc1cccc(/C=C/C#N)c1 | 1 nM
31 | CCc1c(C)[nH]c(=O)c(N(C)CCC#N)c1Cc1cccc(C)c1 | 16 nM
32 | CCc1c(C)[nH]c(=O)c(N(C)CCCC#N)c1Cc1cccc(C)c1 | 5 nM
33 | CCc1c(C)[nH]c(=O)c(N(Cc2ccccc2)Cc2ccccc2)c1Cc1cc(C)cc(C)c1 | 100000 nM
34 | CCc1c(C)[nH]c(=O)c(NC(N)=S)c1Cc1cccc(C)c1 | 316 nM
